Values quoted from earlier work, collected in paper PMC8426237, “A first-in-human phase I study of TAS0728, an oral covalent binding inhibitor of HER2, in patients with advanced solid tumors with HER2 or HER3 aberrations” (Investigational New Drugs, 2021).
Like-named read-outs stand apart in the source and are kept apart here.

Details: cited from earlier work; for Diarrhea toxicity grade: HER2-positive breast cancer; for Diarrhea in patients: approved oral HER2-inhibitory compounds

| Structure (SMILES) | Diarrhea toxicity grade (LUX-BREAST-1/−3 studies) | Diarrhea in patients | Diarrhea toxicity grade (ExteNET trial) | Response of patients with tumors harboring HER2 G778_P780dup |
| --- | --- | --- | --- | --- |
| CN(C)C/C=C/C(=O)Nc1cc2c(Nc3ccc(F)c(Cl)c3)ncnc2cc1O[C@H]1CCOC1 [afatinib] | Grade 3 or 4 | associated with severe diarrhea |  |  |
| CS(=O)(=O)CCNCc1ccc(-c2ccc3ncnc(Nc4ccc(OCc5cccc(F)c5)c(Cl)c4)c3c2)o1 [lapatinib] |  | associated with severe diarrhea |  |  |
| CCOc1cc2ncc(C#N)c(Nc3ccc(OCc4ccccn4)c(Cl)c3)c2cc1NC(=O)/C=C/CN(C)C [neratinib] |  | associated with severe diarrhea | Grade 3 or 4 | respond to treatment |
| Cc1cc(Nc2ncnc3ccc(NC4=NC(C)(C)CO4)cc23)ccc1Oc1ccn2ncnc2c1 [tucatinib] |  | associated with severe diarrhea |  |  |
